# Several values for one entry are separate records, joined by “and”; a condition that tells them apart may be missing. Identical values can stand only once.
# Key:
# [1] = tested on: normal lung (Wi38) cell line; assay: MTT assay against normal lung (Wi38) cell line; format: cell-based; settings: Homo sapiens, WI-38, 48 h
# Excerpt: [Worded in the source for another cell line; this cell line is reported under the same test.] (§1) In vitro inhibition activity of the newly synthesized series was investigated on cell viability according to the literature review described by Mohamed et al. (Mohamed et al. [2021b]). In a brief explanation of MTT assay employed herein. In vitro, toxicological MTT Kit has been used to perform an (3-[4,5-dimethylthiazole-2-yl]-2,5-diphenyltetrazolium bromide) to measure the cytotoxicity effect of a novel (3-(Furan-2-yl)pyrazol-4-yl) chalcones against A549 cell line. Lung carcinoma cell line A549 was seeded in microplate where the prepared chalcones solution were added to triplicates well. Incubation of plates was done at 37 °C for 48 h. The fresh […]. Lung cells treated with different range concentration of our series [[…]] were incubated, also untreated cells were used as a reference negative control. One percent antibiotic mixture was used, and after incubation. The positive control utilized here was 5-FU ([…]).
# [2] = tested on: lung carcinoma (A549) cell line; assay: MTT assay against lung carcinoma (A549) cell line; format: cell-based, human; settings: for IC50: Homo sapiens, A549, 48 h; for IC50 values, Lung carcinoma (A549): 48 h
# Excerpt: as §1
# P53 = assay: Real-time PCR of P53 expression in A549 cells; format: cell-based, human; settings: IC50 conc., 48 h, qPCR, untreated control = 1
# Description: (§2) Total RNAfrom the compound 7b-, compound 7c-treated A549 cells, and untreated cells were extracted using the Qiagen RNAextraction Kit, Catalog # (74,104). 1 µg of RNAwas reverse transcribed into complementary DNA(cDNA) using High-Capacity cDNA Reverse Transcription Kit (Thermo Fisher scientific, ON, Canada). qPCR was performed using Bio RadSYBR Green qPCR master mix (Bio Rad, California, USA) in a Step One Plus Real-Time PCRSystem (Bio Rad, California, USA). The total reaction volume was 25 µL, 12.5 µL of SYBRgreen master mix, 1 µL of each primer (Bax, Bcl2, P53, CDK4) with 10 pmol/µL (Qiagen, CA, Germany), 2.5 µL of cDNA, and […] of RNAse free water. The thermal cycle of PCR started with an initial denaturation at 95 °C for 10 min, followed by 45 cycles at 94 °C for15 s, 65 °C for 30 s, and 56 °C for 30 s. The relative gene expression was determined using the method of 2^−ΔΔCtafter normalization to the expression of β-actin (Qiagen, CA, Germany) (10 pmol/µL). […]
# Bcl2 = assay: Real-time PCR of Bcl2 expression in A549 cells; format: cell-based, human; settings: IC50 conc., 48 h, qPCR, untreated control = 1
# Description: as §2
# A549 cells [3] = assay: Flow-cytometric analysis of cell cycle (PI); format: cell-based, human; settings: IC50 conc., 48 h
# Description: (§3) 10^6 of A549 cells were cultured in 60-mm Petri dishes for 24 h and then treated with compound 7batIC50concentrationfor 48 h. The untreated A549 cells were used as a negative control. After 48 h of incubation, A549 cells were centrifuged at1000 rpm for 5 min at 4 °C. The cells pellet were washed in phosphate-buffered saline (PBS) and then centrifuged at 1000 rpm for another 5 min. After discarding the supeRNAtant, the cells were collected in a single cell suspension and fixed in 70% ethanol on ice overnight. After the fixation step, cells were washed with 1 ml 1 × PBS. Finally, the cells pellet was incubated with a 200 µl 1 × propidium iodide (PI) mixture at room temperature in the dark for 30 min. Then, cells were subjected to an Epics XL-MCL flow cytometer (Beckman Coulter, Miami, FL) for DNA content analysis. Cells distribution at different phases was analysed by Multicycle software (Phoenix Flow Systems, San Diego, CA). Annexin V-FITC kit catalogue number (#K101-25) was used to detect the percentage of the apoptotic cells. About 10^6 of A549 cells were collected by centrifugation. Then, cells were washed in 500 µl of 1 × PBS. The cells were collected by centrifugation and then resuspended in the annexin V incubation reagent. The annexin V incubation reagent comprising of 10 μL binding buffer (10X) + 10 μL propidium iodide + 1 μL annexin V-FITC + 79 μL deionized water. The cells in 100 μL annexin V incubation reagent was incubated in dark at room temperature for 15 min (Ali et al. [2017]). Finally, the percentage of apoptotic cells was analyzed by flow cytometry using FITC signal detector (usually FL-1) and PI staining by the phycoerythrin emission signal detector (usually FL-2).
# human caspase-3 = assay: ELISA of caspase-3 in A549 cell lysates; format: cell-based; settings: A549 cells, IC50 conc., 48 h, untreated control 53.69
# Description: (§4) Elisa assay was performed to detect the concentration of human caspase-3, caspase-8, and caspase-9 in A549 cell culture lysates. The instructions were followed up according to the manuscript instructions described in the following kits: DRG® human Caspase-8 ELISA Kit, Catalogue # (EIA-4863), DRG® human Caspase-9 ELISA Kit, Catalogue # (EIA-4860), and Invitrogen human Caspase-3 Elisa Kit, Catalogue # KHO1091, respectively. All reagents, samples, and standards were prepared as described in the above ELISA kits. Briefly, the procedure was described as followed; the microwell strips were washed twice with wash buffer. A total of 100 μl of standard or samples were added to each well and incubated for 2 h at room temperature (18 to 25 °C). The microwell strips were emptied and washed three times with wash buffer. A total of 100 μl of prepared antibodyanti-rabbit-IgG-HRP) were added to each well for 1 h at room temperature. The step of washing was repeated three times and then, 100 μl of prepared TMB (tetramethyl-benzidine) substrate solution was pipetted to all wells and incubated for 10 min at room temperature. […] The absorbance of each microwell was read immediately on a spectrophotometer at a wavelength of 450 nm. The concentrations of the unknown samples and controls were determined from the standard curve which was plotted using curve fitting software.
# CDK4 = assay: Real-time PCR of CDK4 expression in A549 cells; format: cell-based, human; settings: IC50 conc., 48 h, qPCR, untreated control = 1
# Description: as §2
# human caspase-8 = assay: ELISA of caspase-8 in A549 cell lysates; format: cell-based; settings: A549 cells, IC50 conc., 48 h, untreated control 0.375
# Description: as §4
# A549 cells [4] = assay: Flow-cytometric analysis of apoptosis (Annexin V-FITC/PI); format: cell-based, human; settings: IC50 conc., 48 h
# Description: as §3
# BAX = assay: Real-time PCR of BAX expression in A549 cells; format: cell-based, human; settings: IC50 conc., 48 h, qPCR, untreated control = 1
# Description: as §2
# human caspase-9 = assay: ELISA of caspase-9 in A549 cell lysates; format: cell-based; settings: A549 cells, IC50 conc., 48 h, untreated control 1.49
# Description: as §4
smiles,measurement,setting,value
"Cc1c(C(=O)/C=C/c2nn(-c3ccccc3)cc2-c2ccc(Cl)cc2)c(-c2ccco2)nn1-c1ccc([N+](=O)[O-])cc1 [7g, (E)-3-(4-(4-Chlorophenyl)-1-phenyl-1H-pyrazol-3-yl)-1-(3-(furan-2-yl)-5-methyl-1-(4-nitrophenyl)-1H-pyrazol-4-yl)prop-2-en-1-one]",IC50,[1],379 µg/mL
same,melting point,,242 to 244 °C
same,IC50,[2],251 µg/mL
"Cc1c(C(=O)/C=C/c2ccco2)c(-c2ccco2)nn1-c1ccc([N+](=O)[O-])cc1 [7a, (E)-3-(Furan-2-yl)-1-(3-(furan-2-yl)-5-methyl-1-(4-nitrophenyl)-1H-pyrazol-4-yl)prop-2-en-1-one]",IC50,[1],68 µg/mL
same,melting point,,138 to 140 °C
same,IC50,[2],42.7 µg/mL
"Cc1c(C(=O)/C=C/c2nn(-c3ccccc3)cc2-c2ccccc2)c(-c2ccco2)nn1-c1ccc([N+](=O)[O-])cc1 [7d, (E)-3-(1,4-Diphenyl-1H-pyrazol-3-yl)-1-(3-(furan-2-yl)-5-methyl-1-(4-nitrophenyl)-1H-pyrazol-4-yl)prop-2-en-1-one]",IC50,[1],261 µg/mL
same,melting point,,168 to 170 °C
same,"IC50 values, Lung carcinoma (A549)",[2],76.52 µg/mL
same,IC50,[2],76.5 µg/mL
"Cc1c(C(=O)/C=C/c2cccs2)c(-c2ccco2)nn1-c1ccc([N+](=O)[O-])cc1 [7b, (E)-1-(3-(Furan-2-yl)-5-methyl-1-(4-nitrophenyl)-1H-pyrazol-4-yl)-3-(thiophen-2-yl)prop-2-en-1-one]","Gene expression (fold change/ β-actin), P53",P53,4.69 fold change
same,"Gene expression (fold change/ β-actin), Bcl2",Bcl2,0.44 fold change
same,IC50,[1],108 µg/mL
same,Cell cycle arrest (phase),A549 cells [3],cell cycle arrest at G0/G1 and S phases
same,G2/M % (DNA content),A549 cells [3]; untreated control 15.63,4.21%
same,S % (DNA content),A549 cells [3]; untreated control 37.15,43.42%
same,G0/G1% (DNA content),A549 cells [3]; untreated control 47.22,52.37%
same,"Enzyme activity ± SD, Caspase 3",human caspase-3,495.4 pg/mL and 495.4 ± 6.52 pg/mL
same,"Gene expression (fold change/ β-actin), CDK4",CDK4,0.39 fold change
same,melting point,,142 to 144 °C
same,"Enzyme activity ± SD, Caspase 8",human caspase-8,1.575 ± 0.05 pg/mL
same,"IC50 values, Lung carcinoma (A549)",[2],20.05 µg/mL
same,IC50,[2],20 µg/mL
same,Apoptosis % % Late,A549 cells [4]; untreated control 0.11,21.24%
same,Apoptosis % % Early,A549 cells [4]; untreated control 0.34,3.69%
same,Necrosis%,A549 cells [4]; untreated control 1.26,17.23%
same,Apoptosis % %Total,A549 cells [4]; untreated control 1.71,42.16%
same,"Gene expression (fold change/ β-actin), BAX",BAX,7.93 fold change
same,"Enzyme activity ± SD, Caspase 9",human caspase-9,15.76 ± 0.06 pg/mL
"Cc1ccc(-c2cn(-c3ccccc3)nc2/C=C/C(=O)c2c(-c3ccco3)nn(-c3ccc([N+](=O)[O-])cc3)c2C)cc1 [7e, (E)-1-(3-(Furan-2-yl)-5-methyl-1-(4-nitrophenyl)-1H-pyrazol-4-yl)-3-(1-phenyl-4-(p-tolyl)-1H-pyrazol-3-yl)prop-2-en-1-one]",IC50,[1],296 µg/mL
same,melting point,,248 to 250 °C
same,IC50,[2],217 µg/mL
"Cc1c(C(=O)/C=C/c2ccncc2)c(-c2ccco2)nn1-c1ccc([N+](=O)[O-])cc1 [7c, (E)-1-(3-(Furan-2-yl)-5-methyl-1-(4-nitrophenyl)-1H-pyrazol-4-yl)-3-(pyridin-4-yl)prop-2-en-1-one]","Gene expression (fold change/ β-actin), P53",P53,2.32 fold change
same,"Gene expression (fold change/ β-actin), Bcl2",Bcl2,0.61 fold change
same,IC50,[1],18.2 µg/mL
same,"Enzyme activity ± SD, Caspase 3",human caspase-3,377.2 pg/mL and 377.2 ± 6.04 pg/mL
same,"Gene expression (fold change/ β-actin), CDK4",CDK4,0.54 fold change
same,melting point,,198 to 200 °C
same,"Enzyme activity ± SD, Caspase 8",human caspase-8,1.042 pg/mL and 1.042 ± 0.02 pg/mL
same,IC50,[2],13.9 µg/mL
same,"Gene expression (fold change/ β-actin), BAX",BAX,4.78 fold change
same,"Enzyme activity ± SD, Caspase 9",human caspase-9,11.2 pg/mL and 11.2 ± 0.52 pg/mL
"Cc1c(C(=O)/C=C/c2nn(-c3ccccc3)cc2-c2ccc([N+](=O)[O-])cc2)c(-c2ccco2)nn1-c1ccc([N+](=O)[O-])cc1 [7h, (E)-1-(3-(Furan-2-yl)-5-methyl-1-(4-nitrophenyl)-1H-pyrazol-4-yl)-3-(4-(4-nitrophenyl)-1-phenyl-1H-pyrazol-3-yl)prop-2-en-1-one]",IC50,[1],224 µg/mL
same,melting point,,242 °C
same,IC50,[2],211 µg/mL
"COc1ccc(-c2cn(-c3ccccc3)nc2/C=C/C(=O)c2c(-c3ccco3)nn(-c3ccc([N+](=O)[O-])cc3)c2C)cc1 [7f, (E)-1-(3-(Furan-2-yl)-5-methyl-1-(4-nitrophenyl)-1H-pyrazol-4-yl)-3-(4-(4-methoxyphenyl)-1-phenyl-1H-pyrazol-3-yl)prop-2-en-1-one]",IC50,[1],296 µg/mL
same,melting point,,232 to 234 °C
same,IC50,[2],238 µg/mL
"O=c1[nH]cc(F)c(=O)[nH]1 [5-FU, reference compound]","IC50 values, Lung carcinoma (A549)",[2],147.29 µg/mL
